Where two headings read alike, the source gives them in different places.
Experiments:
[1] = mammalian toxicity against Swiss white mice (oral); settings: mouse, in vivo, corn oil carrier
Procedure: Mammalian toxicity was determined against Swiss white mice.

[2] = tested on: house flies, Musca domestica; assay: insecticidal activity against house flies (topical, 24 hours mortality); assay type: in vivo; settings: read-out: House flies LD50
Procedure: Representative carbamate esters of the invention were tested for insecticidal activity against house flies, Musca domestica. Stock 1% concentrated solutions for each of the test compounds were made in acetone, and such solutions diluted with acetone to a concentration of 0.001-0.1%. House flies were treated topically on the notum by 1 μl of each of the diluted acetone solutions and percent mortality was counted 24 hours after application. The insects were held at a constant temperature of 60° F. Results are given in μg/g.

[3] = topical on the notum, 1 μl acetone solution, percent mortality 24 hours after application, 60° F

| SMILES | LD50 [1] [mg/kg] | LD50 ([2]; topical, 24 h) [mg/kg] | LD50 [2, 3] [mg/kg] |
| --- | --- | --- | --- |
| CC(C)c1cccc(OC(=O)N(C)[S+]([O-])N(C)S(=O)(=O)c2ccccc2)c1 (stereo not drawn) [III, 3-isopropylphenyl N-(N'-benzenesulfonyl-N'-methylaminosulfinyl)-N-methylcarbamate] | 150 | 95 |  |
| CCN([S+]([O-])N(C)C(=O)Oc1cccc2c1OC(C)(C)C2)S(=O)(=O)N1CCOCC1 (stereo not drawn) [Example XI, 2,3-Dihydro-2,2-dimethylbenzofuranyl-7-N-(N'-morpholinosulfonyl-N'-ethylaminosulfinyl)-N-methylcarbamate] |  | 10 |  |
| CCCCN(CCCC)S(=O)(=O)N(C)[S+]([O-])N(C)C(=O)ON=C(C)SC (stereo not drawn) [Example XII, S-methyl N-[N'-(N"-dibutylaminosulfonyl-N"-methylaminosulfinyl)-N'-methylcarbamoyloxy]thioacetimidate] | 100 |  | 9 |
| CC(C)Oc1ccccc1OC(=O)N(C)[S+]([O-])N(C)S(=O)(=O)c1ccccc1 (stereo not drawn) [II, 2-isopropoxyphenyl N-(N'-benzenesulfonyl-N'-methylaminosulfinyl)-N-methylcarbamate] | 250 | 55 |  |
| CCN([S+]([O-])N(C)C(=O)ON=C(C)SC)S(C)(=O)=O (stereo not drawn) [VIII, S-methyl N-[N'-(N"-methanesulfonyl-N"-ethylaminosulfinyl)-N'-methylcarbamoyloxy]thioacetimidate] | 250 |  | 25 |
| CN(C(=O)Oc1cccc2c1OC(C)(C)C2)[S+]([O-])N(C)S(=O)(=O)N1CCOCC1 (stereo not drawn) [Example X, 2,3-Dihydro-2,2-dimethylbenzofuranyl-7N-[N'-(N"-morpholinosulfonyl)-N'-methylaminosulfinyl]N-methylcarbamate] |  | 13 |  |
| CCCCN(CCCC)S(=O)(=O)N(C)[S+]([O-])N(C)C(=O)Oc1cccc2c1OC(C)(C)C2 (stereo not drawn) [Example IX, 2,3-dihydro-2,2-dimethylbenzofuranyl-7 N-(N'-dibutylaminosulfonyl-N'-methylaminosulfinyl)-N-methylcarbamate] | 25 | 12 |  |
| CSC(C)=NOC(=O)N(C)[S+]([O-])N(C)S(=O)(=O)c1ccccc1 (stereo not drawn) [V, S-methyl N-[N'-(N"-benzenesulfonyl-N"-methylaminosulfinyl)-N'-methylcarbamoyloxy]thioacetimidate] | 86 |  | 17.5 |
| CCN([S+]([O-])N(C)C(=O)Oc1cccc2c1OC(C)(C)C2)S(C)(=O)=O (stereo not drawn) [VI, 2,3-dihydro-2,2-dimethylbenzofuranyl-7 N-(N'-methanesulfonyl-N'-ethylaminosulfinyl)-N-methylcarbamate] |  | 12.5 |  |
| CN(C(=O)Oc1cccc2ccccc12)[S+]([O-])N(C)S(=O)(=O)c1ccccc1 (stereo not drawn) [IV, 1-naphthyl N-(N'-benzenesulfonyl-N'-methylaminosulfinyl)-N-methylcarbamate] | > 500 | 450 |  |
| CCN([S+]([O-])N(C)C(=O)Oc1cccc(C(C)C)c1)S(C)(=O)=O (stereo not drawn) [VII, 3-isopropylphenyl N-(N'-methanesulfonyl-N'-ethylaminosulfinyl)-N-methylcarbamate] | 200 | 90 |  |
| CN(C(=O)Oc1cccc2c1OC(C)(C)C2)[S+]([O-])N(C)S(=O)(=O)c1ccccc1 (stereo not drawn) [Example I, 2,3-dihydro-2,2-dimethylbenzofuranyl-7N-(N'-benzenesulfonyl-N'-methylaminosulfinyl)-N-methylcarbamate] | 35 | 9.5 |  |

Reference: patent publication US4308274A, “N-Alkylsulfonyl-, N-arylsulfonyl-, and N-aminosulfonylaminosulfinylcarbamate esters” (priority 1979, dated 1981)
